Assay results taken from patent publication US20160257735A1, “REGULATION OF NPVF GENE AND ITS PRODUCTS: A METHOD FOR MODULATING ENERGY IMBALANCE” (Institute of Animal Reproduction and Food Research PAS, priority 2015, published 2016).
Ends that are not written are not given here.

Columns and labels:
NPFFR1 = NPFFR1 (Homo sapiens, UniProt Q9GZQ6); conditions: cited from earlier work
[1] = tested on: Npvf mRNA in hypothalamus; experiment: CL 316,243 or saline administration for 7 days at 29° C., Npvf mRNA in hypothalamus by qRT-PCR; format: in vivo, mice (C57BL/6J); conditions: one week administration, 1 mg/kg of body weight, subcutaneous, mice at 29° C.
Protocol: Total RNA was isolated from adipose tissue, liver and hypothalamus using TRI Reagent and BCP phase separation reagent (Molecular Research Center Inc. Cincinnati, Ohio, United States). RNA was further purified by using the RNAeasy minikit (QIAGEN, Valencia, Calif., United States) and stored at −80° C. in RNase-free H2O with addition of SUPERase-In (Ambion, Austin, Tex., United States) for RNase protection. Quality and quantity of RNA was determined using UV spectrophotometry (Nanodrop) and agarose gel visualization of intact RNA. Quantitative RT-PCR using TaqMan probes and primers (Applied Biosystems, Foster City, Calif., United States) was performed with standard curves generated using pooled RNA isolated from corresponding tissues collected from eight 8 week old C57BL/6J.+/+ mice. Probe and primer sequences used to perform the analyses are available upon request. All the gene expression data were normalized to the level of cyclophilin b.
To establish the influence of different ambient temperature on Npvf expression mice were kept in climate-controlled rodent incubators. To evaluate the effects of the β adrenergic receptor agonist on Ucp1 and Npvf, thermoneutrally acclimated mice were injected subcutaneously with 1 mg kg^−1 […] or saline for 7 days.
All mice used in the following studies were adult wild-type C57BL/6J+/+ mice. […]

[2] = tested on: NPFF receptors (NPFF1 and NPFF2 subtypes); conditions: cited from earlier work
[3] = target: T1, rat orphan 7TM GPCR (OT7T022, GPR147, NPFFR1) (Rattus norvegicus, UniProt Q9EP86); conditions: synthetic RFRPs; cited from earlier work
T1 construct: expressed in transfected cells; host or cells: CHO cells
T1 sequence (Q9EP86 whole entry): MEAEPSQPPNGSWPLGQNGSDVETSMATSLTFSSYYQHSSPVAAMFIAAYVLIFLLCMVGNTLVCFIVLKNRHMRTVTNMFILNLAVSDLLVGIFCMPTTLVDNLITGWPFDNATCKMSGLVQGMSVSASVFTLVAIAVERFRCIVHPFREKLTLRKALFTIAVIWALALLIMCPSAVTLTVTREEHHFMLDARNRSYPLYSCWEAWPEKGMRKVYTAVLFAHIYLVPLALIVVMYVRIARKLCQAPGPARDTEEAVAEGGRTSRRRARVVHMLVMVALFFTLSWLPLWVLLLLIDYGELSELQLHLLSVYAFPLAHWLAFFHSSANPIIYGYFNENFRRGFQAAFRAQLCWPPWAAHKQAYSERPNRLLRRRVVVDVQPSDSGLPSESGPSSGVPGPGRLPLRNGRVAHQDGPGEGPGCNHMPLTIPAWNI

Chain of NPFFR1 (Q9GZQ6 whole entry, species assumed): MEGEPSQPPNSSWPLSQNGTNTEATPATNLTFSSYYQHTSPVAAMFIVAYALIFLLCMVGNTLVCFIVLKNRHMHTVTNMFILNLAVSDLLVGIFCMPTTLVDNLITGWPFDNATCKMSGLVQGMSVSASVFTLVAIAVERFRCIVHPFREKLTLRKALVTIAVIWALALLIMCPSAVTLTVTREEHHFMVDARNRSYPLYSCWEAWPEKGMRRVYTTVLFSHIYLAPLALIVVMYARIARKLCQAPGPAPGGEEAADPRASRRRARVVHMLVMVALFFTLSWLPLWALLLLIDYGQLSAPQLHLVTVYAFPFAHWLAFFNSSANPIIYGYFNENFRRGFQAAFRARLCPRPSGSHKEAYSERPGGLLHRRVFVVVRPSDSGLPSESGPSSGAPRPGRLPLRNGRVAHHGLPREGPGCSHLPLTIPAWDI

NC(N)=NCCC[C@@H](NC(=O)C(c1ccccc1)c1ccccc1)C(=O)NCc1ccc(O)cc1 [BIBP3226]
binding to NPFFR1 (NPFFR1): has been shown to bind to NPFFR1

C[C@H](Cc1ccc2c(c1)OC(C(=O)[O-])(C(=O)[O-])O2)NC[C@H](O)c1cccc(Cl)c1.[Na+].[Na+] [CL 316,243]
suppression of Npvf mRNA in hypothalamus compared to saline-treated control mice [1]: did not result in the suppression of Npvf mRNA in hypothalamus

NC(=O)[C@H](Cc1ccccc1)NC(=O)[C@H](CCCN=C(N)N)NC(=O)C12CC3CC(CC(C3)C1)C2 [RF9, adamantylcarbonyl-arginyl-phenylalaninamide]
discrimination between NPFF1 and NPFF2 subtypes [2]: does not distinguish between the NPFF1 and NPFF2 subtypes | selectivity for NPFF receptors [2]: selective for NPFF receptors

RFRP-1: RFamide-related peptide derived from Npvf precursor; human sequence MPHSFANLPLRF-NH(2) (SEQ ID NO: 1) (MPHSFANLPLRF-NH2; listed as Homo sapiens)
response of GPR147-transfected CHO cell lines [3]: responded specifically

RFRP-3: RFamide-related peptide derived from Npvf precursor; human sequence VPNLPQRF-NH(2) (SEQ ID NO: 2)
response of GPR147-transfected CHO cell lines [3]: responded specifically
